Publication PMC10924921, “Mi-2β promotes immune evasion in melanoma by activating EZH2 methylation” (Nature Communications, 2024)

Columns and labels:
Experiment in all cases: biochemical
Design in all cases: KINOMEscan active-site competition binding panel (468 kinase assays), per cent of control at 1000 nM
Settings in all cases: KINOMEscan per cent of control (binding competition); read-out: Percent Control
[1] = molecular target: T1, ABL1(F317L)-phosphorylated (Homo sapiens, UniProt P00519, F317L)
T1 construct: phosphorylated
Excerpt: (§1) Figure S7 / Percent Control

[2] = molecular target: ACVR2B (Homo sapiens, UniProt Q13705)
Excerpt: as §1

[3] = molecular target: T2, ASK1 (Homo sapiens, UniProt Q99683)
T2 construct: gene MAP3K5
T2 sequence (Q99683 whole entry): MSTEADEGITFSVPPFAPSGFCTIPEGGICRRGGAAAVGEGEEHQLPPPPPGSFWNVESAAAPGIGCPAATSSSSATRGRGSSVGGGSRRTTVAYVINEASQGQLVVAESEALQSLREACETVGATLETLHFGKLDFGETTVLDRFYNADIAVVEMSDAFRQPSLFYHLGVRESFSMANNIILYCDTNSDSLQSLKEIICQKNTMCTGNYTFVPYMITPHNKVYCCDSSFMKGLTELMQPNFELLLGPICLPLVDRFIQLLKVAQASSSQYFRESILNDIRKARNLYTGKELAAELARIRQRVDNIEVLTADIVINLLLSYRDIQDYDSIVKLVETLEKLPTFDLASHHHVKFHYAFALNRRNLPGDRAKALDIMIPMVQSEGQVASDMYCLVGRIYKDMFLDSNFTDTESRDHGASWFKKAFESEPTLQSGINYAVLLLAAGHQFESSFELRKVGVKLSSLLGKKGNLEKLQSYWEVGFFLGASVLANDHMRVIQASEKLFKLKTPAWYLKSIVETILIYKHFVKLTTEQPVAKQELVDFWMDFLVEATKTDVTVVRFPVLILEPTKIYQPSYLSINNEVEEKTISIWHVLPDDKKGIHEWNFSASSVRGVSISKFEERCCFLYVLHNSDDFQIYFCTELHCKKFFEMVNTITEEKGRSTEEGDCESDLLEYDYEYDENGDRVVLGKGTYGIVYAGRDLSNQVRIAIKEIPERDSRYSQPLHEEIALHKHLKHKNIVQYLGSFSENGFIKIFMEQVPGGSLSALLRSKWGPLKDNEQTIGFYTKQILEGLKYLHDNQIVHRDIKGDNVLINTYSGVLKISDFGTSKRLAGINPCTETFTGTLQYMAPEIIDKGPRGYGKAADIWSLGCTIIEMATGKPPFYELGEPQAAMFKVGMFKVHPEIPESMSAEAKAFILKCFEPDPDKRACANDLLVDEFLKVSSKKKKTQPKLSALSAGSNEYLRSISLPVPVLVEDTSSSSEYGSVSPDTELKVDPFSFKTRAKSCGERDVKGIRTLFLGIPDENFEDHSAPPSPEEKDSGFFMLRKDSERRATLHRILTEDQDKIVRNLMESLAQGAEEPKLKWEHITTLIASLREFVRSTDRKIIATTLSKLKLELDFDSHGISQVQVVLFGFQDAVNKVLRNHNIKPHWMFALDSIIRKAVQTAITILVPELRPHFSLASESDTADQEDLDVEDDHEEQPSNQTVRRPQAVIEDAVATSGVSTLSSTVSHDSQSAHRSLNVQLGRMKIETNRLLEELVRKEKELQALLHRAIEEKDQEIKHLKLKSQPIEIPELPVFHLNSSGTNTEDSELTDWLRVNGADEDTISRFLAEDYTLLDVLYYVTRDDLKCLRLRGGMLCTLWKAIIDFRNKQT
Excerpt: as §1

[4] = molecular target: AURKC (Homo sapiens, UniProt Q9UQB9)
Sequence of AURKC (Q9UQB9 whole entry): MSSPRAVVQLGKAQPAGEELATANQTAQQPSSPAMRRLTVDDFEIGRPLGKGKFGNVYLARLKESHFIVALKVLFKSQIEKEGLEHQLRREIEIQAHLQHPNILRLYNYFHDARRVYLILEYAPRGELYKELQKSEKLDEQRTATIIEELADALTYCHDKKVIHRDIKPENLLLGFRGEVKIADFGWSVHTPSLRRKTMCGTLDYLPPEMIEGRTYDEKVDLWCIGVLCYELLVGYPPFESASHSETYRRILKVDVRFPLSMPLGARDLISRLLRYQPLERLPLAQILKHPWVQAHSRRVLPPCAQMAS
Excerpt: as §1

[5] = molecular target: T3, BRK (Homo sapiens, UniProt Q13882)
T3 construct: gene PTK6
Excerpt: as §1

[6] = molecular target: BRSK1 (Homo sapiens, UniProt Q8TDC3)
Excerpt: as §1

[7] = molecular target: CAMK1G (Homo sapiens, UniProt Q96NX5)
Excerpt: as §1

[8] = molecular target: CAMK4 (Homo sapiens, UniProt Q16566)
Sequence of CAMK4 (Q16566 whole entry): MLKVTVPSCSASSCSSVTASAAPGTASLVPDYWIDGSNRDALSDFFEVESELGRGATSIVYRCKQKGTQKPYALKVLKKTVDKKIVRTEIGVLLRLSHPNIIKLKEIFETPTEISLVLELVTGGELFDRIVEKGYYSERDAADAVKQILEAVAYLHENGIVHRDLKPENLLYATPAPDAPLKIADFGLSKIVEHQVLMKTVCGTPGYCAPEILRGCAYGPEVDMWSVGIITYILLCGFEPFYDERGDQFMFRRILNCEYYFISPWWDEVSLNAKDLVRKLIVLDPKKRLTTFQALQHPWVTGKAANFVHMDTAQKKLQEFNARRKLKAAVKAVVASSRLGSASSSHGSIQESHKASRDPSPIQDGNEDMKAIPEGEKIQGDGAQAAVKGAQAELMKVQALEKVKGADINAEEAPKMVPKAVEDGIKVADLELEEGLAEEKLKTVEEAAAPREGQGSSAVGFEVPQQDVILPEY
Excerpt: as §1

[9] = molecular target: CDKL5 (Homo sapiens, UniProt O76039)
Sequence of CDKL5 (O76039 whole entry): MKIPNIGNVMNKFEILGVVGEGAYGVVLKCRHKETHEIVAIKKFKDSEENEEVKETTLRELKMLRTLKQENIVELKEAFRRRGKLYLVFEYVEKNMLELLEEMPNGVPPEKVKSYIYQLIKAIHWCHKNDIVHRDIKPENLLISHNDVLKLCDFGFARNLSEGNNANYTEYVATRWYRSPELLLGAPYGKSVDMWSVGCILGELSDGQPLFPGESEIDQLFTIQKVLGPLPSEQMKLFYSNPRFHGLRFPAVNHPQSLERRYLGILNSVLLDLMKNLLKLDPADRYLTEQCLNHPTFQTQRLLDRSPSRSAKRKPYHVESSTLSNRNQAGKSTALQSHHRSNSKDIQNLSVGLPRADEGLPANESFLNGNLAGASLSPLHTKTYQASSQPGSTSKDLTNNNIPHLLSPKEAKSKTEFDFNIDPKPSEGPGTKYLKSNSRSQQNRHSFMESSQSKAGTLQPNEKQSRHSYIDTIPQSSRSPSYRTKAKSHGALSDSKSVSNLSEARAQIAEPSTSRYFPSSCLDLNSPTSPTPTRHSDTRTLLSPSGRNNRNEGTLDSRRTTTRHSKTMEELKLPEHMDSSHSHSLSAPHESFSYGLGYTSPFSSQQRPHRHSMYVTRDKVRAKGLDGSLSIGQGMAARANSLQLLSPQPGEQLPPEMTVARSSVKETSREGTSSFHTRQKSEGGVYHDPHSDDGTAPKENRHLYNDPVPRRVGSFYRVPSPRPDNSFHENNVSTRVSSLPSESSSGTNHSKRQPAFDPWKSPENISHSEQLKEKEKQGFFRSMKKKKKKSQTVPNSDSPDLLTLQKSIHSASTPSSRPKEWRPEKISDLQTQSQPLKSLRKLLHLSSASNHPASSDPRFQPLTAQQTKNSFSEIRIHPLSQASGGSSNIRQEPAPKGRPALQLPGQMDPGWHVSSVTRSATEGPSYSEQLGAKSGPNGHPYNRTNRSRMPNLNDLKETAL
Excerpt: as §1

[10] = molecular target: CSNK1E (Homo sapiens, UniProt P49674)
Excerpt: as §1

[11] = molecular target: DAPK3 (Homo sapiens, UniProt O43293)
Excerpt: as §1

[12] = molecular target: EPHA2 (Homo sapiens, UniProt P29317)
Excerpt: as §1

[13] = molecular target: FLT3(ITD) (Homo sapiens, UniProt P36888, ITD)
Excerpt: as §1

[14] = molecular target: HIPK3 (Homo sapiens, UniProt Q9H422)
Excerpt: as §1

[15] = molecular target: MAP4K2 (Homo sapiens, UniProt Q12851)
Excerpt: as §1

[16] = molecular target: MYO3B (Homo sapiens, UniProt Q8WXR4)
Sequence of MYO3B (Q8WXR4 whole entry): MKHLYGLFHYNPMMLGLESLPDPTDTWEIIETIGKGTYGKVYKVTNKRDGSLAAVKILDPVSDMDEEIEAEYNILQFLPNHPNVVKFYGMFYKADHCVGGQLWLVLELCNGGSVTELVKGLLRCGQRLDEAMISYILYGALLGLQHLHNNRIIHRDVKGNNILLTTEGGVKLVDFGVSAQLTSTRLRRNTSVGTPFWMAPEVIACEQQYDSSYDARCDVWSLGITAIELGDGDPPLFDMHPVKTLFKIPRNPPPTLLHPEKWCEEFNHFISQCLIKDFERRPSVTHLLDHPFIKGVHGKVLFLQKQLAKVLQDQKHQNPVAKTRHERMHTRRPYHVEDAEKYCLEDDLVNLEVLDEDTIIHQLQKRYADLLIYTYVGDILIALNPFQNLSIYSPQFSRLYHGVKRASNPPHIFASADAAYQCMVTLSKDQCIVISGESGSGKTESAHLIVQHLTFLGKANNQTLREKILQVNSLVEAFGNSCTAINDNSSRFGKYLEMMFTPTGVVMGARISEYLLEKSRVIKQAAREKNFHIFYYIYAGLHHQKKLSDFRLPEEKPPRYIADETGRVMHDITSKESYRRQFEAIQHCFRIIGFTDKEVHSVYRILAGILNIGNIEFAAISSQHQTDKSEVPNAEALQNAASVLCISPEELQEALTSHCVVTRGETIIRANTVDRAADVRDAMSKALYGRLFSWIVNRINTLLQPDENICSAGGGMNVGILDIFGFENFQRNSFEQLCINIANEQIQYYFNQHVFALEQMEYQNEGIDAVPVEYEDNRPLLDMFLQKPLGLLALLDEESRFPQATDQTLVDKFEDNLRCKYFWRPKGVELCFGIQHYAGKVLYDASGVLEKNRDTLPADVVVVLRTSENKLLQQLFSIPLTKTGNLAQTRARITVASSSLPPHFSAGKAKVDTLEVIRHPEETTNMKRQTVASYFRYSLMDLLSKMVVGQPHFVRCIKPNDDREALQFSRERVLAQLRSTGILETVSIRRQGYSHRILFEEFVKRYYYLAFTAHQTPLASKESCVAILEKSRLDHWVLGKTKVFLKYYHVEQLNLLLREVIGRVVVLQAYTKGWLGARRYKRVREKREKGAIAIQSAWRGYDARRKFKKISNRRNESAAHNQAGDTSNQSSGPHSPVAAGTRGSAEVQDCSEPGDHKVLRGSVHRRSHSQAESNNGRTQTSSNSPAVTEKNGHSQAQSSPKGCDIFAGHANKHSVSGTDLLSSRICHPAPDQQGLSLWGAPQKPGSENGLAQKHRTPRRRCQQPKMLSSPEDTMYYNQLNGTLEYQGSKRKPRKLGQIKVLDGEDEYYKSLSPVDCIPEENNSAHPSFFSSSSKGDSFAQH
Excerpt: as §1

[17] = molecular target: NEK7 (Homo sapiens, UniProt Q8TDX7)
Excerpt: as §1

[18] = molecular target: PAK1 (Homo sapiens, UniProt Q13153)
Sequence of PAK1 (Q13153 whole entry): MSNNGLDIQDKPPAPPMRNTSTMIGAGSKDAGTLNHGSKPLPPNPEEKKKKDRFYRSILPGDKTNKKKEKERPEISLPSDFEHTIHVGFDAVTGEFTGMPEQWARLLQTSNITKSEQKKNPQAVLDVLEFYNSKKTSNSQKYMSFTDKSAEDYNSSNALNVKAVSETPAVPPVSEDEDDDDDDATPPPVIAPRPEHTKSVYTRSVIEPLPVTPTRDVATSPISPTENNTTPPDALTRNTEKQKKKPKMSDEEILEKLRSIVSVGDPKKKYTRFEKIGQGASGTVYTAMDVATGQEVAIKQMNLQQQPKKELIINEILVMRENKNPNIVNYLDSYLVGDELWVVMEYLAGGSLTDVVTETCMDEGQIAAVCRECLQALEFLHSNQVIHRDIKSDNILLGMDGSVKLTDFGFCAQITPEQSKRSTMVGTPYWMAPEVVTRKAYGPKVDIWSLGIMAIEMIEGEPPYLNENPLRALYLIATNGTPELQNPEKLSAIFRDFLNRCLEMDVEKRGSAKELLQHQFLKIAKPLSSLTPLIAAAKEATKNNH
Excerpt: as §1

[19] = molecular target: PAK6 (Homo sapiens, UniProt Q9NQU5)
Excerpt: as §1

[20] = molecular target: PKMYT1 (Homo sapiens, UniProt Q99640)
Excerpt: as §1

[21] = molecular target: T4, QSK (Homo sapiens, UniProt Q9Y2K2)
T4 construct: gene SIK3
Excerpt: as §1

[22] = molecular target: ROCK1 (Homo sapiens, UniProt Q13464)
Excerpt: as §1

[23] = molecular target: TGFBR1 (Homo sapiens, UniProt P36897)
Excerpt: as §1

[24] = molecular target: ULK2 (Homo sapiens, UniProt Q8IYT8)
Excerpt: as §1

[25] = molecular target: WNK4 (Homo sapiens, UniProt Q96J92)
Excerpt: as §1

Cn1c(=O)[nH]c2ccc(-c3cccc(C(=O)NC4CCn5ccnc5C4)c3)cc21 (stereo not shown) [Z36-MP5]
remaining binding at 1 µM [1]: 83%
remaining binding at 1 µM [2]: 91%
remaining binding at 1 µM [3]: 75%
remaining binding at 1 µM [4]: 100%
remaining binding at 1 µM [5]: 100%
remaining binding at 1 µM [6]: 92%
remaining binding at 1 µM [7]: 99%
remaining binding at 1 µM [8]: 98%
remaining binding at 1 µM [9]: 39%
remaining binding at 1 µM [10]: 49%
remaining binding at 1 µM [11]: 89%
remaining binding at 1 µM [12]: 88%
remaining binding at 1 µM [13]: 92%
remaining binding at 1 µM [14]: 61%
remaining binding at 1 µM [15]: 81%
remaining binding at 1 µM [16]: 91%
remaining binding at 1 µM [17]: 89%
remaining binding at 1 µM [18]: 87%
remaining binding at 1 µM [19]: 91%
remaining binding at 1 µM [20]: 93%
remaining binding at 1 µM [21]: 63%
remaining binding at 1 µM [22]: 54%
remaining binding at 1 µM [23]: 90%
remaining binding at 1 µM [24]: 59%
remaining binding at 1 µM [25]: 81%
